Measurements from patent US20080182859A1 (Curis, Inc., priority 2006, published 2008).
Where a name gives a salt, the structure may show the parent alone.

How the values were obtained:
Type in all cases: cell-based
sonic hedgehog pathway [1] = experiment: Hedgehog pathway Gli-luciferase reporter assay, TM3 cells; conditions: TM3 mouse Leydig cells
Description: (§1) Mouse (TM3: mouse Leydig cells; S12: mouse embryonic mesenchymal cells) and human (Daoy: human medulloblastoma cell; HepM: human embryonic palatal mesenchymal cell) cell lines are used to screen small molecules for their ability to modulate the activity of the sonic hedgehog pathway (Table 1, Table 2, and Table 3). Stable hedgehog pathway reporter cell lines are established by specific antibiotic selection following transfection of a reporter plasmid containing a luciferase gene located directly downstream from the gli promoter. Consequently, any observable changes in cellular luciferase activity may be attributed to changes in sonic hedgehog pathway activity in mouse and human cells, respectively, since gli is the major by-product of this pathway. To calculate activity, we generate an eleven point dose curve for each compound using 1:3 dilutions in 96 well assay plates. Each plate tested also contains low and high control to establish maximal pathway activation so to establish/compare a percentage activation of each tested compound (AMAX) on respective plates. Also we calculate EC50 values, or a concentration where the pathway will be exactly 50% activated, for each tested compound to determine potency. In these cell lines, compounds that register >20% AMAX values are considered active.
(§2) Stable hedgehog pathway reporter cell lines are established following specific antibiotic selection following transfection of a reporter plasmid In short, typically cells are plated in MicroTiter-plates at 10,000-20,000 cells per well, in growth media (containing 10%-20% FBS). After 48-72 hrs (HGL and DGL respectively) the media in the assay plates is switched to low-serum containing media (0.5% FBS). At that time compounds are added (at 1-5 μM) to the assay plates, in the presence or absence of hedgehog protein (octyl-modified version; 1-5 ng/ml). After another 24 hrs of incubation, the media from the assay plates is discarded and replaced with luciferase assay-mix. Subsequently, plates are incubated at RT for ˜15-30 mins and then read in a luminometer. [note: addition of the Hedgehog protein, although not critical, will sensitize the assay allowing the identification of weak actives].

sonic hedgehog pathway [2] = experiment: Human hedgehog reporter assay HEPM-GliLuc (HGL); conditions: HepM human embryonic palatal mesenchymal cells, Gli-luciferase reporter
Description: as §1, §2

sonic hedgehog pathway [3] = experiment: Human hedgehog reporter assay Daoy-GliLuc (DGL); conditions: Daoy human medulloblastoma cells, Gli-luciferase reporter; read-out: Daoy Avg. EC50
Description: as §1, §2

| SMILES | EC50 (sonic hedgehog pathway [1]) | EC50 (sonic hedgehog pathway [3]) | EC50 (sonic hedgehog pathway [2]) |
| --- | --- | --- | --- |
| CN[C@H]1CC[C@@H](N(Cc2cc(-c3cccc(C#N)c3)ccc2OC)C(=O)c2sc3c(F)ccc(F)c3c2Cl)CC1 [Compound 337, 3-Chloro-4,7-difluoro-benzo[b]thiophene-2-carboxylic acid (3′-cyano-4-methoxy-biphenyl-3-ylmethyl)-(4-methylamino-cyclohexyl)-amide hydrochloride] | < 50 nM |  | < 50 nM |
| CN[C@H]1CC[C@@H](N(Cc2cc(-c3ccc(C#N)cc3)ccc2OC)C(=O)c2sc3c(F)ccc(F)c3c2Cl)CC1 [Compound 351, 3-Chloro-4,7-difluoro-benzo[b]thiophene-2-carboxylic acid (4′-cyano-4-methoxy-biphenyl-3-ylmethyl)-(4-methylamino-cyclohexyl)-amide hydrochloride] | < 50 nM |  | < 50 nM |
| CCOc1ccc(-c2ccc(N)nc2)cc1CN(C(=O)c1sc2ccccc2c1Cl)[C@H]1CC[C@H](NC)CC1 [Compound 396, 3-Chloro-benzo[b]thiophene-2-carboxylic acid [2-ethoxy-5-(6-amino-pyridin-3-yl)-benzyl]-(4-methylamino-cyclohexyl)-amide dihydrochloride] | 250 to 1000 nM |  | 50 to 250 nM |
| CNc1ccc(-c2ccc(OC)c(CN(C(=O)c3sc4ccccc4c3Cl)[C@H]3CC[C@H](NC)CC3)c2)cn1 [Compound 397, 3-Chloro-benzo[b]thiophene-2-carboxylic acid [2-methoxy-5-(6-methylamino-pyridin-3-yl)-benzyl]-(4-methylamino-cyclohexyl)-amide dihydrochloride] | 250 to 1000 nM |  | 250 to 1000 nM |
| CCOc1ccc(-c2cc(C)nc(C)c2)cc1CN(C(=O)c1sc2ccccc2c1Cl)[C@H]1CC[C@H](NC)CC1 [Compound 400, 3-Chloro-benzo[b]thiophene-2-carboxylic acid [5-(2,6-dimethyl-pyridin-4-yl)-2-ethoxy-benzyl]-(4-methylamino-cyclohexyl)-amide dihydrochloride] | 250 to 1000 nM |  | 250 to 1000 nM |
| CCOc1ccc(-c2ccc(N)nc2C)cc1CN(C(=O)c1sc2ccccc2c1Cl)[C@H]1CC[C@H](NC)CC1 [Compound 403, 3-Chloro-benzo[b]thiophene-2-carboxylic acid [5-(6-amino-2-methyl-pyridin-3-yl)-2-ethoxy-benzyl]-(4-methylamino-cyclohexyl)-amide dihydrochloride] | 1000 to 2500 nM |  | 250 to 1000 nM |
| CCOc1ccc(-c2ccc(N(C)C)nc2)cc1CN(C(=O)c1sc2ccccc2c1Cl)[C@H]1CC[C@H](NC)CC1 [Compound 404, 3-Chloro-benzo[b]thiophene-2-carboxylic acid [5-(6-dimethylamino-pyridin-3-yl)-2-ethoxy-benzyl]-(4-methylamino-cyclohexyl)-amide bis(trifluoroacetate)] | 1000 to 2500 nM |  | 250 to 1000 nM |
| CN[C@H]1CC[C@H](N(Cc2cc(-c3ccc(N(C)C)nc3)ccc2OC)C(=O)c2sc3ccccc3c2Cl)CC1 [Compound 405, 3-Chloro-benzo[b]thiophene-2-carboxylic acid [5-(6-dimethylamino-pyridin-3-yl)-2-methoxy-benzyl]-(4-methylamino-cyclohexyl)-amide bis(trifluoroacetate)] | 1000 to 2500 nM |  | 250 to 1000 nM |
| CN[C@H]1CC[C@H](N(Cc2cc(-c3cccc(C#N)c3)ccc2F)C(=O)c2sc3ccccc3c2Cl)CC1 [Compound 420, 3-Chloro-benzo[b]thiophene-2-carboxylic acid (3′-cyano-4-fluoro-biphenyl-3-ylmethyl)-(4-methylamino-cyclohexyl)-amide trifluoroacetate] | 50 to 250 nM | 50 to 250 nM |  |
| CN[C@H]1CC[C@H](N(Cc2cc(-c3ccc(C#N)cc3)ccc2F)C(=O)c2sc3ccccc3c2Cl)CC1 [Compound 423, 3-Chloro-benzo[b]thiophene-2-carboxylic acid (4′-cyano-4-fluoro-biphenyl-3-ylmethyl)-(4-methylamino-cyclohexyl)-amide trifluoroacetate] | 250 to 1000 nM | 250 to 1000 nM |  |

Continued, in another order:

| EC50 (sonic hedgehog pathway [1]) | EC50 (sonic hedgehog pathway [3]) | SMILES | EC50 (sonic hedgehog pathway [2]) |
| --- | --- | --- | --- |
| < 50 nM |  | CN[C@H]1CC[C@@H](N(Cc2cc(-c3ccnc(C)c3)ccc2OC)C(=O)c2sc3ccccc3c2Cl)CC1 [331 (R11)] | < 50 nM |
| < 50 nM |  | CN[C@H]1CC[C@@H](N(Cc2cc(-c3ccncc3)ccc2OC)C(=O)c2sc3ccccc3c2Cl)CC1 [339 (R12)] | < 50 nM |
| < 50 nM |  | CN[C@H]1CC[C@@H](N(Cc2cc(-c3ccc(C)nc3)ccc2OC)C(=O)c2sc3ccccc3c2Cl)CC1 [Compound 320, 3-Chloro-benzo[b]thiophene-2-carboxylic acid [2-methoxy-5-(6-methyl-pyridin-3-yl)-benzyl]-(4-methylamino-cyclohexyl)-amide dihydrochloride] | < 50 nM |
| 50 to 250 nM | < 50 nM | CN[C@H]1CC[C@@H](N(Cc2cc(-c3cnc(N)nc3)ccc2OC)C(=O)c2sc3ccccc3c2Cl)CC1 [Compound 323, 3-Chloro-benzo[b]thiophene-2-carboxylic acid [5-(2-amino-pyrimidin-5-yl)-2-methoxy-benzyl]-(4-methylamino-cyclohexyl)-amide dihydrochloride] |  |
| < 50 nM |  | CCOc1ccc(-c2ccc(C(=O)C(F)(F)F)cc2)cc1CN(C(=O)c1sc2c(F)ccc(F)c2c1Cl)[C@H]1CC[C@@H](NC)CC1 [Compound 341, 3-Chloro-4,7-difluoro-benzo[b]thiophene-2-carboxylic acid [4-ethoxy-4′-(2,2,2-trifluoro-acetyl)-biphenyl-3-ylmethyl]-(4-methylamino-cyclohexyl)-amide trifluoroacetate] | 50 to 250 nM |
| < 50 nM | < 50 nM | CN[C@H]1CC[C@@H](N(Cc2cc(-c3cccc(C(C)=O)c3)ccc2OC)C(=O)c2sc3cccc(F)c3c2Cl)CC1 [Compound 363, 3-Chloro-4-fluoro-benzo[b]thiophene-2-carboxylic acid (3′-acetyl-4-methoxy-biphenyl-3-ylmethyl)-(4-methylamino-cyclohexyl)-amide hydrochloride] |  |
| < 50 nM |  | CN[C@H]1CC[C@@H](N(Cc2cc(-c3cccc(C(C)=O)c3)ccc2OC)C(=O)c2sc3c(F)ccc(F)c3c2Cl)CC1 [Compound 364, 3-Chloro-4,7-difluoro-benzo[b]thiophene-2-carboxylic acid (3′-acetyl-4-methoxy-biphenyl-3-ylmethyl)-(4-methylamino-cyclohexyl)-amide hydrochloride] | < 50 nM |
| < 50 nM | < 50 nM | CN[C@H]1CC[C@@H](N(Cc2cc(-c3cccc(C#N)c3)ccc2OC)C(=O)c2sc3cccc(F)c3c2Cl)CC1 [Compound 365, 3-Chloro-4-fluoro-benzo[b]thiophene-2-carboxylic acid (3′-cyano-4-methoxy-biphenyl-3-ylmethyl)-(4-methylamino-cyclohexyl)-amide hydrochloride] |  |
| < 50 nM | < 50 nM | CN[C@H]1CC[C@@H](N(Cc2cc(-c3ccc(C#N)cc3)ccc2OC)C(=O)c2sc3cccc(F)c3c2Cl)CC1 [Compound 366, 3-Chloro-4-fluoro-benzo[b]thiophene-2-carboxylic acid (4′-cyano-4-methoxy-biphenyl-3-ylmethyl)-(4-methylamino-cyclohexyl)-amide hydrochloride] |  |
| < 50 nM | < 50 nM | CN[C@H]1CC[C@H](N(Cc2cc(-c3ccccc3)ccc2F)C(=O)c2sc3ccccc3c2Cl)CC1 [Compound 425, 3-Chloro-benzo[b]thiophene-2-carboxylic acid (4-fluoro-biphenyl-3-ylmethyl)-(4-methylamino-cyclohexyl)-amide trifluoroacetate] |  |
| < 50 nM | 50 to 250 nM | CN[C@H]1CC[C@H](N(Cc2cc(-c3ccc(N(C)C=O)cc3)ccc2F)C(=O)c2sc3ccccc3c2Cl)CC1 [Compound 426, 3-Chloro-benzo[b]thiophene-2-carboxylic acid [4-fluoro-4′-(formyl-methyl-amino)-biphenyl-3-ylmethyl]-(4-methylamino-cyclohexyl)-amide trifluoroacetate] |  |
| < 50 nM | < 50 nM | CN[C@H]1CC[C@H](N(Cc2cc(-c3ccc(C(O)C(F)(F)F)cc3)ccc2F)C(=O)c2sc3ccccc3c2Cl)CC1 (stereo partly shown) [Compound 433, 3-Chloro-benzo[b]thiophene-2-carboxylic acid [4-fluoro-4′-(2,2,2-trifluoro-1-hydroxy-ethyl)-biphenyl-3-ylmethyl]-(4-methylamino-cyclohexyl)-amide hydrochloride] |  |
| < 50 nM | < 50 nM | CN[C@H]1CC[C@H](N(Cc2cc(-c3ccc(C(=O)C(F)(F)F)cc3)ccc2F)C(=O)c2sc3c(F)ccc(F)c3c2Cl)CC1 [Compound 434, 3-Chloro-4,7-difluoro-benzo[b]thiophene-2-carboxylic acid [4-fluoro-4′-(2,2,2-trifluoro-acetyl)-biphenyl-3-ylmethyl]-(4-methylamino-cyclohexyl)-amide hydrochloride] |  |
